The values below are quoted from earlier work in publication PMC10096175, “An In Vitro Antimicrobial, Anticancer and Antioxidant Activity of N–[(2–Arylmethylthio)phenylsulfonyl]cinnamamide Derivatives” (Molecules, 2023).

SMILES strings stand for the structures. In brackets after ≈: the same amount, converted by molar mass.

The subject of data set [1] is quorum sensing system of C. violaceum. On the set-up: method as in doi:10.1016/j.ibiod.2018.06.003. Conditions: at 1 mM; cited from earlier work.
Another data set has as its system E. coli. On the set-up: method as in PMID 19231901. Conditions: cited from earlier work.
Another data set has as its system S. aureus. On the set-up: method as in PMID 19231901. Conditions: cited from earlier work.
Data set [2] deals with human breast cancer MCF-7 cells. Also on record: method as in PMID 30389289. Conditions: cited from earlier work.

`COC(=O)/C=C/c1ccccc1` [methyl trans-cinnamate]: the Quorum sensing inhibition result in data set [1] is on record as “completely inhibit”. Also, the “Concentration that completely inhibited growth” value in the data set with E. coli was 6.2 mM; with S. aureus, 3.1 mM.

By IC50 is commonly meant the concentration at which inhibition is half-maximal. As to `O=C(/C=C/c1ccc2c(c1)OCO2)NS(=O)(=O)c1ccccc1` [(E)–3–(benzo[d][1,3]dioxol–5–yl)–N–(phenylsulfonyl)acrylamide], the 50% inhibitory concentration (IC50) in data set [2] was 0.17 µg/mL (≈ 0.513 µM).
